Reference: patent US9868698B2, “(2S,4R)-5-(5′-chloro-2′-fluorobiphenyl-4-yl)-4-(ethoxyoxalylamino)-2-hydroxymethyl-2-methylpentanoic acid” (THERAVANCE BIOPHARMA R&D IP, LLC, priority 2015, dated 2018)

Assays:
[1] = Exposure of crystals to ambient conditions; format: physicochemical
NEP [2] = biological target: T1, NEP (Homo sapiens, UniProt P08473); assay: In vitro enzyme inhibition assay, human NEP (Assay 1); format: biochemical; parameters: purchased R&D Systems 1182-ZN; conditions: read-out: human pKi (converted)
Procedure: (§1) The inhibitory activities at human and rat neprilysin (EC 3.4.24.11; NEP) were determined using in vitro assays as described below.
Recombinant human NEP was obtained commercially (R&D Systems, Minneapolis, Minn., catalog number 1182-ZN). The fluorogenic peptide substrate Mca-D-Arg-Arg-Leu-Dap-(Dnp)-OH (Medeiros et al. (1997) Braz. J. Med. Biol. Res. 30:1157-62; Anaspec, San Jose, Calif.) was used.
(§2) The assays were performed in 384-well white opaque plates at 37° C. using the fluorogenic peptide substrate at a concentration of 10 μM in Assay Buffer (50 mM HEPES, pH 7.5, 100 mM NaCl, 0.01% polyethylene glycol sorbitan monolaurate (Tween-20), 10 μM ZnSO4).
(§3) Test compounds were assayed over the range of concentrations from 10 μM to 20 pM. Test compounds were added to the enzyme and incubated for 30 minute at 37° C. prior to initiating the reaction by the addition of substrate. Reactions were terminated after 20 minutes of incubation at 37° C. by the addition of glacial acetic acid to a final concentration of 3.6% (v/v).
(§4) Plates were read on a fluorometer with excitation and emission wavelengths set to 320 nm and 405 nm, respectively. Inhibition constants were obtained by nonlinear regression of the data using the equation (GraphPad Software, Inc., San Diego, Calif.): v=v0/[1+(I/K′)] where v is the reaction rate, v0 is the uninhibited reaction rate, I is the inhibitor concentration and K′ is the apparent inhibition constant.
Target sequence in this assay (P08473 52-750 limits assumed): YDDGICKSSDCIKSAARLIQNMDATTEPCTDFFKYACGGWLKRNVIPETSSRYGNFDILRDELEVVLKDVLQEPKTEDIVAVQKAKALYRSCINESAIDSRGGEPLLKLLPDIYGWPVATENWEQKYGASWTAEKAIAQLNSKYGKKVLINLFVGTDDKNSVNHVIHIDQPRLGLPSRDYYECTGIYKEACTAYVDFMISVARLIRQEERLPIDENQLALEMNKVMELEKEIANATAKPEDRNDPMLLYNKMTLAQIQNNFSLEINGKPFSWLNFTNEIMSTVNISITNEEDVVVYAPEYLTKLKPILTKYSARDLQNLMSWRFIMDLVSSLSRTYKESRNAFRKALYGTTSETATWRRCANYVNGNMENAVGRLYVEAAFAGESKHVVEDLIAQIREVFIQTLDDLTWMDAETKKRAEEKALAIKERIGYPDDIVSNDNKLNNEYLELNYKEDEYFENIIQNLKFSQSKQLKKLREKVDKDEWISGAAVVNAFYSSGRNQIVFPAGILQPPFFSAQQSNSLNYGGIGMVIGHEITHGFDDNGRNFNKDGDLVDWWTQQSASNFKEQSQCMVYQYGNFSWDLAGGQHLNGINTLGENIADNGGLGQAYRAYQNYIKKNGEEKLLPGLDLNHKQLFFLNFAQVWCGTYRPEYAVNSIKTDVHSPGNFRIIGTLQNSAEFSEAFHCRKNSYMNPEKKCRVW

Rat NEP = biological target: T2, Rat NEP (Rattus norvegicus, UniProt P07861); assay: In vitro enzyme inhibition assay, rat NEP (Assay 1); format: biochemical; conditions: NEP from rat kidneys; read-out: rat pKi (converted)
T2 construct: leaving a viscous oily precipitate containing the enriched membrane fraction; from tissue; host or cells: kidneys of adult Sprague Dawley rats (Triton X-114 enriched membrane fraction)
T2 sequence (P07861 1-750): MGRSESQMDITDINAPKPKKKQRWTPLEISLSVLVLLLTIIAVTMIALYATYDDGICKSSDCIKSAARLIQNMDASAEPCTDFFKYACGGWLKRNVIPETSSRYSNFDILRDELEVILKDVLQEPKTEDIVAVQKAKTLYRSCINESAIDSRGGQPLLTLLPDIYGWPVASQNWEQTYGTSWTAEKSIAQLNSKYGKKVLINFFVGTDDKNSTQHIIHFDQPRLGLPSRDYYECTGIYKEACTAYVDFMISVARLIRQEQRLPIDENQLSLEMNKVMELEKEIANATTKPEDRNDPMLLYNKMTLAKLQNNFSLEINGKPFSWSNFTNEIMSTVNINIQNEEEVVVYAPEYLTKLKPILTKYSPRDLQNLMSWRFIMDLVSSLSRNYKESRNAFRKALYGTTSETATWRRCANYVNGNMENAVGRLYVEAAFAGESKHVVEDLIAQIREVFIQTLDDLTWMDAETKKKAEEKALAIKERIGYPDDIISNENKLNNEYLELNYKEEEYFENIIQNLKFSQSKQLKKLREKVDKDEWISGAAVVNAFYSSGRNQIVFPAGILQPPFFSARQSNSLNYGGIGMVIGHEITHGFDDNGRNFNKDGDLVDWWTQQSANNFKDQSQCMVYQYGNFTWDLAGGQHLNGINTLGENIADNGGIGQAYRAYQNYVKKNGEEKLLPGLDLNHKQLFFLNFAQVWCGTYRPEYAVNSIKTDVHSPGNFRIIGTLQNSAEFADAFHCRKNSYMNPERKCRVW
Procedure: as §1
Rat NEP was prepared from the kidneys of adult Sprague Dawley rats. Whole kidneys were washed in cold phosphate buffered saline (PBS) and brought up in ice-cold lysis buffer (1% Triton X-114, 150 mM NaCl, 50 mM tris(hydroxymethyl) aminomethane (Tris) pH 7.5; Bordier (1981) J. Biol. Chem. 256: 1604-1607) in a ratio of 5 mL of buffer for every gram of kidney. Samples were homogenized on ice using a polytron hand held tissue grinder. Homogenates were centrifuged at 1000×g in a swinging bucket rotor for 5 minutes at 3° C. The pellet was resuspended in 20 mL of ice cold lysis buffer and incubated on ice for 30 minutes. Samples (15-20 mL) were then layered onto 25 mL of ice-cold cushion buffer (6% w/v sucrose, 50 mM pH 7.5 Tris, 150 mM NaCl, 0.06%, Triton X-114), heated to 37° C. for 3-5 minutes and centrifuged at 1000×g in a swinging bucket rotor at room temperature for 3 minutes. The two upper layers were aspirated off, leaving a viscous oily precipitate containing the enriched membrane fraction. Glycerol was added to a concentration of 50% and samples were stored at −20° C. Protein concentrations were quantitated using a BCA detection system with bovine serum albumin (BSA) as a standard.
as §2, §3, §4

[3] = Renal excretion in male beagle dogs (Assay 4); format: in vivo; conditions: dog, IV 1.0 mg/kg
Procedure: An important factor for insuring appropriate long term drug dosing and correct steady-state drug concentrations in patients is drug clearance. In general, decreased drug clearance results in higher drug concentrations and greater drug effects.
Male beagle dogs (N=3), having body weights of 9.58-10.42 kg, received an IV dose of 1.0 mg/kg of Compound 1. Compound 1 was formulated in 5% NaHCO3 in D5W. The dogs were fasted overnight and pretreated with pentagastrin (60 μg/mL, 0.1 mL/kg, IM) approximately 30 minutes prior to dose administration to stimulate gastric secretion. Food was returned approximately 4 hours postdose. Urine samples were collected surrounded by cold ice packs during the collection period. After 24 hours, the sample weight was recorded, the sample was thoroughly mixed, and aliquots were obtained and frozen (−80° C.) prior to bioanalysis.
Dog urine concentrations of Compound 1 were determined by LC/MS/MS. Urine study samples (diluted in plasma) were vortexed and 50 μL was placed in a 96-well plate. The samples were extracted with acetonitrile with internal standard chrysin. The extract was centrifuged and supernatant was transferred to a new 96-well plate and diluted 1 part sampe in 4 parts water with 0.2% formic acid. Samples (12 μL) were injected on a Waters Acquity UPLC BEH C18 (50×2.1 mm, 1.7 μm) column with a flow rate of 0.9 mL/min. […]

[4] = IV/PO pharmacokinetic study in dogs (Assay 3); format: in vivo; conditions: male, beagle, plasma, dog, read-out: AUClast Mean
Procedure: (§5) Each rat or dog pharmacokinetic study began with formulation of the test compound. Appropriate masses of each test compound were added into a volume of vehicle (e.g. 5% sodium bicarbonate, 5% dextrose in water) such that the final concentration of each compound was appropriate to be dosed at 2 mL/kg. Although a homogenous suspension were acceptable for oral dosing, intravenous dosing solutions were sterile-filtered (0.2 μm) prior to dosing to ensure no particulates were administered.
In the dog study, male beagle dogs (3 per route) housed at Agilux Laboratories (Worcester, Mass.) and weighing between 7-12 kg received either a single oral gavage or a single intravenous (via indwelling catheter) dose of the dosing solution. The final dose was typically 0.1-2 mg/kg. Serial blood samples were harvested via direct venipuncture at 3 minutes, 15 minutes, 30 minutes, 1 hour, 2 hours, 4 hours, 6 hours, 8 hours, 12 hours, and 24 hours post-dose. All samples were collected manually into microtainer tubes containing sodium fluoride, potassium oxalate and paraoxon, and were processed to plasma by refrigerated centrifugation.
(§6) Plasma samples were extracted with 3 volumes of MeCN containing a suitable internal standard. Extracts were reconstituted into 3 volumes of water containing 1% formic acid, and analyzed via HPLC-coupled MS/MS. Plasma concentration-time data were analyzed using the Phoenix software (Pharsight Corp., St. Louis, Mo.) to calculate pharmacokinetic parameters.

NEP [5] = biological target: T1, NEP; conditions: reported in U.S. Patent Application Publication No. 2013/0109639; cited from earlier work
Target sequence in this assay (P08473 whole entry): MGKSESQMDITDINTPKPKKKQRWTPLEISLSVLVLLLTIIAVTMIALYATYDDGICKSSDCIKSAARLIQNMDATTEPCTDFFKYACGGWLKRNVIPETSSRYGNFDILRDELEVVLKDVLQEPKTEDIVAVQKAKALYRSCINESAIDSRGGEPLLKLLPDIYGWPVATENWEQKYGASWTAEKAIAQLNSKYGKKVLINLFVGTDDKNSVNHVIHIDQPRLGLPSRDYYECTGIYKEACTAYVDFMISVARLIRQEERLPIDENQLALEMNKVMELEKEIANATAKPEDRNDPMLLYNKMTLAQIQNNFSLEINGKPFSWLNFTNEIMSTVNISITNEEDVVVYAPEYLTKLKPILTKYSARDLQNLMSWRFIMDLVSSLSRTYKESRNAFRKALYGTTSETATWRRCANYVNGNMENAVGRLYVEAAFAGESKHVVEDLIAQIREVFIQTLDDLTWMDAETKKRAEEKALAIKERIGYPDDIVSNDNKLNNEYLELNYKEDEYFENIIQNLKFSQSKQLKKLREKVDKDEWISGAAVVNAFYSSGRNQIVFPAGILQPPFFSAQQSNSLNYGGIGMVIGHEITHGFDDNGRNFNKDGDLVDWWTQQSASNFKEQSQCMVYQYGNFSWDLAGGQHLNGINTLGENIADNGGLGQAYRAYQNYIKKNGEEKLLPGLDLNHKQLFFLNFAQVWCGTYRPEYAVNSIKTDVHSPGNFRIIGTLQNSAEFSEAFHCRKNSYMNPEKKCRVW

[6] = IV/PO pharmacokinetic study in rats (Assay 3); format: in vivo; conditions: male, Sprague-Dawley, plasma; rat, IV; analyte = compound dosed (active metabolite); read-out: AUClast Mean
Procedure: as §5
In the rat study, pre-cannulated male Sprague-Dawley rats (3 per route) between 8 and 10 weeks of age were obtained from Harlan Laboratories (Indianapolis, Ind.). Rats received either a single oral gavage or a single intravenous (via lateral tail vein) dose of the dosing solution. The final dose was typically 0.5-3 mg/kg. Serial blood samples were harvested via the cannula implanted in the jugular vein at 3 minutes, 15 minutes, 30 minutes, 1 hour, 2 hours, 4 hours, 6 hours, and 24 hours post-dose. Sampling was performed either manually or using automated blood samplers. Samples were collected into microtainer tubes containing sodium fluoride, potassium oxalate and paraoxon, and were processed to plasma by refrigerated centrifugation.
as §6

Row | AUC(0-t) [6] | AUC(0-t) ([4]; IV, analyte = compound dosed (active metabolite)) | Structure (SMILES) | behaviour of crystals at ambient conditions (in words) [1] | Ki (NEP [2]) | Ki (Rat NEP) | Amount of Compound 1 Excreted in Urine over Collection Period (0-24 hrs) Mean [3] | Urinary Excretion (approximate % of administred dose excreted in urine) Mean ([3]; 0-24 hrs, 1 mg/kg) | AUC(0-t) ([4]; PO, analyte = compound dosed (prodrug)) | pKi at NEP (NEP [5])
1 |  |  | CCOC(=O)C(=O)N[C@H](Cc1ccc(-c2cc(Cl)ccc2F)cc1)C[C@@](C)(CO)C(=O)O [Compound 1″, L-Arginine (2S,4R)-5-(5′-Chloro-2′-fluoro-[1,1′-bipheny]-4-yl)-4-(2-ethoxy-2-oxoacetamido)-2-(hydroxymethyl)-2-methylpentanoate] | slow deliquescence |  |  |  |  |  | 
2 |  |  | CCOC(=O)C(=O)N[C@H](Cc1ccc(-c2cc(Cl)ccc2F)cc1)C[C@@](C)(CO)C(=O)O [Compound 1, (2S,4R)-5-(5′-Chloro-2′-fluorobiphenyl-4-yl)-4-(ethoxyoxalylamino)-2-hydroxymethyl-2-methylpentanoic Acid] |  | 0.794 nM | 0.794 nM | 28.9 µg | 0.284% | 3.7 ng·h/mL | 
3 | 16000 ng·h/mL | 1970 ng·h/mL | C[C@@](CO)(C[C@@H](Cc1ccc(-c2cc(Cl)ccc2F)cc1)NC(=O)C(=O)O)C(=O)O [Comparison Compound C2, (2S,4R)-5-(5′-Chloro-2′-fluorobiphenyl-4-yl)-2-hydroxymethyl-2-methyl-4-(oxalylamino)pentanoic Acid] |  | 0.631 nM | 0.316 nM |  |  |  | ≥ 9
